# Measured values taken from ChEMBL document CHEMBL1141969, “2-Cyano-4-fluoro-1-thiovalylpyrrolidine analogues as potent inhibitors of DPP-IV” (Bioorg Med Chem Lett, 2005).
# Legend:
# [1] = target: T1, Prolyl endopeptidase FAP (Homo sapiens, UniProt Q12884); assay: Inhibitory activity against recombinant seprase
# T1 sequence (Q12884 whole entry): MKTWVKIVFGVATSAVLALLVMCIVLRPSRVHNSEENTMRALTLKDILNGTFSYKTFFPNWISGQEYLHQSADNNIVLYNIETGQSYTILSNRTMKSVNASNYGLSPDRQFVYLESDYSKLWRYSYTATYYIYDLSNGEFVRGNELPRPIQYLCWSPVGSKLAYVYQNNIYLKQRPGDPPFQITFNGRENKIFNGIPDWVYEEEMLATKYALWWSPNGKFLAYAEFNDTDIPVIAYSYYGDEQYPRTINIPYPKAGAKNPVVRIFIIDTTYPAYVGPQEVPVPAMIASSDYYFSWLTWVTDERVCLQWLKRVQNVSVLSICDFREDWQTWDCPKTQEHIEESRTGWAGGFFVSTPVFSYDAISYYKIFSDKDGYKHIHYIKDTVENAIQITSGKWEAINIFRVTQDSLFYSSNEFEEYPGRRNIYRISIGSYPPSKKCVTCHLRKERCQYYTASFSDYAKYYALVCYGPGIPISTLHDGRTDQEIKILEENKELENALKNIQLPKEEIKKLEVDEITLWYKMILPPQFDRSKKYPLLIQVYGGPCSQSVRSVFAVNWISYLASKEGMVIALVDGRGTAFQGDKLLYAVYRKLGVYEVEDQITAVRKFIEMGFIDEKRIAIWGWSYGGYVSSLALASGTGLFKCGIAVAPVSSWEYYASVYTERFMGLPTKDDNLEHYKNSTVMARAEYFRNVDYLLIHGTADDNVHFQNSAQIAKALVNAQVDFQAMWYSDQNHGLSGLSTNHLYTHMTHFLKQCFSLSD
# [2] = target: Dipeptidyl peptidase 2 (Homo sapiens, UniProt Q9UHL4); assay: Inhibitory activity against recombinant DPP2
# [3] = tested on: Canis familiaris; assay: Gastro-Intestinal toxicity in dog at 10 mg/kg, po; format: organism-based, Canis lupus familiaris; design: dose 10 mg/kg, route oral; conditions: in vivo
# [4] = Oral bioavailability in rat, po; format: ADME, organism-based; conditions: in vivo
# [5] = Oral bioavailability in rat; format: ADME, organism-based; conditions: in vivo
# [6] = Half life in rat; format: ADME, organism-based; conditions: in vivo
# [7] = Oral bioavailability in dog; format: ADME, organism-based, Canis lupus familiaris; conditions: in vivo
# [8] = Half life in dog; format: ADME, organism-based, Canis lupus familiaris; conditions: in vivo
# [9] = Half life cyclization at 37 C, pH 7.2; format: ADME
# [10] = species on record: Homo sapiens; assay: Inhibition of cytochrome P450
Ki [1],Ki [2],SMILES,also measured
,> 22.4 µM,COc1cccc(CS(=O)(=O)C(C)(C)[C@H](N)C(=O)N2C[C@@H](F)C[C@H]2C#N)c1,
> 23.4 µM,> 22.4 µM,CC(C)([C@H](N)C(=O)N1C[C@@H](F)C[C@H]1C#N)S(=O)(=O)Cc1ccncc1,
> 23.4 µM,> 22.4 µM,CC(C)(SCc1cccnc1)[C@H](N)C(=O)N1C[C@@H](F)C[C@H]1C#N,
> 23.4 µM,> 22.4 µM,CC(C)([C@H](N)C(=O)N1C[C@@H](F)C[C@H]1C#N)S(=O)(=O)Cc1ccccc1,
,> 22.4 µM,CC(C)(SCc1ccncc1)[C@H](N)C(=O)N1C[C@@H](F)C[C@H]1C#N,
> 23.4 µM,> 22.4 µM,Cc1ccc(CS(=O)(=O)C(C)(C)[C@H](N)C(=O)N2C[C@@H](F)C[C@H]2C#N)cc1,
,> 22.4 µM,COc1ccccc1CS(=O)(=O)C(C)(C)[C@H](N)C(=O)N1C[C@@H](F)C[C@H]1C#N,
> 23.4 µM,,CC(C)([C@H](N)C(=O)N1C[C@@H](F)C[C@H]1C#N)S(=O)(=O)Cc1ccc(S(C)(=O)=O)cc1,bioavailability [4]: < 5%
,> 22.4 µM,CC(C)(SCc1ccccn1)[C@H](N)C(=O)N1C[C@@H](F)C[C@H]1C#N,
> 23.4 µM,> 22.4 µM,COc1ccc(CS(=O)(=O)C(C)(C)[C@H](N)C(=O)N2C[C@@H](F)C[C@H]2C#N)cc1,half-life [6]: 2.3 h; half-life [8]: 3.9 h; IC50 [10]: > 15 µM
,> 22.4 µM,CC(C)([C@H](N)C(=O)N1C[C@@H](F)C[C@H]1C#N)S(=O)(=O)Cc1ccc(OCc2ccccc2)cc1,
> 23.4 µM,,COc1ccc(CSC(C)(C)[C@H](N)C(=O)N2C[C@@H](F)C[C@H]2C#N)cc1,

# Continued, compound first:
SMILES,Ki [1],Ki [2],also measured
CC(C)(SCCc1ccccc1)[C@H](N)C(=O)N1C[C@@H](F)C[C@H]1C#N,> 23.4 µM,,
CC(C)([C@H](N)C(=O)N1C[C@@H](F)C[C@H]1C#N)S(=O)(=O)Cc1csc2ccc(Cl)cc12,,> 22.4 µM,
CC(C)([C@H](N)C(=O)N1C[C@@H](F)C[C@H]1C#N)S(=O)(=O)Cc1ccc(-c2ccccc2)cc1,,> 22.4 µM,
CC(C)([C@H](N)C(=O)N1C[C@@H](F)C[C@H]1C#N)S(=O)(=O)CCCc1ccccc1,> 23.4 µM,> 22.4 µM,
COc1ccc(C[S+]([O-])C(C)(C)[C@H](N)C(=O)N2C[C@@H](F)C[C@H]2C#N)cc1 (stereo partly drawn),> 23.4 µM,> 22.4 µM,
CC(C)([C@H](N)C(=O)N1C[C@@H](F)C[C@H]1C#N)S(=O)(=O)O,,> 22.4 µM,
CC(=O)Nc1ccc(CS(=O)(=O)C(C)(C)[C@H](N)C(=O)N2C[C@@H](F)C[C@H]2C#N)cc1,,> 22.4 µM,
CC(C)([C@H](N)C(=O)N1C[C@@H](F)C[C@H]1C#N)S(=O)(=O)Cc1ccc(F)cc1,> 23.4 µM,> 22.4 µM,
CC(C)([C@H](N)C(=O)N1C[C@@H](F)C[C@H]1C#N)S(=O)(=O)Cc1ccc(C#N)cc1,,> 22.4 µM,Activity [3]: Toxic
CC(C)([C@H](N)C(=O)N1C[C@@H](F)C[C@H]1C#N)S(=O)(=O)Cc1cccc(Oc2ccccc2)c1,,> 22.4 µM,
COc1ccc(CS(=O)(=O)C(C)(C)[C@H](N)C(=O)N2CCC[C@H]2C#N)cc1,,,bioavailability [5]: 4%; half-life [6]: 4.2 h; bioavailability [7]: 100%; half-life [8]: 3 h; half-life [9]: 360 h; IC50 [10]: > 15 µM
CC(C)(SCc1ccc(C(F)(F)F)cc1)[C@H](N)C(=O)N1C[C@@H](F)C[C@H]1C#N,> 23.4 µM,,
CC(=O)NCSC(C)(C)[C@H](N)C(=O)N1C[C@@H](F)C[C@H]1C#N,,> 22.4 µM,
